Consider one molecule from ChEMBL document CHEMBL1132502, “Synthesis of a fluorescent microgonotropen (FMGT-1) and its interactions with the dodecamer d(CCGGAATTCCGG)” (Bioorg Med Chem Lett, 1999).

Structures are written as SMILES.

The test system of this assay is Nucleic Acid. In words: Association constant (Ka) with DNA dodecamer d(CCGGAATTCCGG) was determined. Type of assay: nucleic-acid assay.

As for `CN1CCN(c2ccc3[nH]c(-c4ccc5[nH]c(-c6ccc(O)cc6)nc5c4)nc3c2)CC1`, the Ka is 1.3 M⁻¹.
